Test results: PubChem BioAssay AID330 (DTP/NCI, 2004)
Where “and” joins values, the source holds several entries; their conditions need not be identical. Equal entries are not always repeated. Inconclusive results and toxic doses are left out. Rule for the calls: active = survival T/C of 150% or more; inactive = T/C below 125% in these data.

Tested on: P388 leukemia ip, CD2F1 mice, survival T/C
Experiment: NCI In Vivo Anticancer Drug Screen. Data for tumor model P388 Leukemia (intraperitoneal) in CD2F1 (CDF1) mice
Conditions: endpoint: median survival time, higher = longer survival
Summary of the method: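 Mice carrying the transplanted tumor received test compound or vehicle. Survival was recorded in each group, and the value is the treated-group measurement divided by that of the vehicle-treated control group.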

[1] = dose: 50.0 mg/kg/injection, schedule: Q01DX009 (ip), vehicle: Klucel (hydroxypropylcellulose) (HPC)
[2] = dose: 100.0 mg/kg/injection, schedule: Q01DX009 (ip), vehicle: Klucel (hydroxypropylcellulose) (HPC)
[3] = dose: 200.0 mg/kg/injection, schedule: Q01DX009 (ip), vehicle: Klucel (hydroxypropylcellulose) (HPC)
[4] = dose: 60.0 mg/kg/injection, schedule: Q01DX005 (ip), vehicle: saline with Tween-80
[5] = dose: 120.0 mg/kg/injection, schedule: Q01DX005 (ip), vehicle: saline with Tween-80
[6] = dose: 240.0 mg/kg/injection, schedule: Q01DX005 (ip), vehicle: saline with Tween-80
[7] = dose: 50.0 mg/kg/injection, schedule: Q01DX005 (ip), vehicle: saline with Tween-80
[8] = dose: 100.0 mg/kg/injection, schedule: Q01DX005 (ip), vehicle: saline with Tween-80
[9] = dose: 200.0 mg/kg/injection, schedule: Q01DX005 (ip), vehicle: saline with Tween-80
[10] = dose: 50.0 mg/kg/injection, schedule: Q01DX009 (ip), vehicle: saline with Tween-80
[11] = dose: 100.0 mg/kg/injection, schedule: Q01DX009 (ip), vehicle: saline with Tween-80
[12] = dose: 200.0 mg/kg/injection, schedule: Q01DX009 (ip), vehicle: saline with Tween-80
[13] = dose: 50.0 mg/kg/injection, schedule: Q04DX003 (ip), vehicle: saline with Tween-80
[14] = dose: 100.0 mg/kg/injection, schedule: Q04DX003 (ip), vehicle: saline with Tween-80
[15] = dose: 200.0 mg/kg/injection, schedule: Q04DX003 (ip), vehicle: saline with Tween-80

Measured: T/C

CC(=O)Nc1ccc(NC(=O)Nc2c(Cl)cccc2Cl)cc1
inactive: [1] 100 % of control | [2] 98 % of control | [3] 91 % of control

CCCC12C=C(OC)C(=O)C=C1OC(c1cc(OC)c(OC)c(OC)c1)C2C (centres undefined)
inactive: dose: 8.75 mg/kg/injection, schedule: Q01DX005 (ip), vehicle: Klucel (hydroxypropylcellulose) (HPC) 101 % of control | dose: 17.5 mg/kg/injection, schedule: Q01DX005 (ip), vehicle: Klucel (hydroxypropylcellulose) (HPC) 96 % of control | dose: 35.0 mg/kg/injection, schedule: Q01DX005 (ip), vehicle: Klucel (hydroxypropylcellulose) (HPC) 100 % of control

Cc1ccc(C)n1-c1ccc(OCC(N)=O)cc1
inactive: [4] 104 % of control | [5] 97 % of control | [6] 90 % of control

CCCCCCCN(CCCCCCC)CC(O)c1cc2ccccc2c2cc(Br)ccc12 (centres undefined)
inactive: [7] 109 % of control | [8] 104 % of control | [9] 99 % of control

COc1ccc(/C=C2\NC(c3ccccc3)OC2=O)cc1OC (centres undefined)
inactive: [1] 98 % of control | [2] 89 % of control | [3] 100 % of control

CC1=C(C)C(=O)OC1
inactive: dose: 60.0 mg/kg/injection, schedule: Q01DX005 (ip), vehicle: saline 108 % of control | dose: 120.0 mg/kg/injection, schedule: Q01DX005 (ip), vehicle: saline 107 % of control | dose: 240.0 mg/kg/injection, schedule: Q01DX005 (ip), vehicle: saline 101 % of control

COc1ccc(C#CC2(O)c3ccccc3C(O)(C#Cc3ccc(OC)cc3)c3ccccc32)cc1 (centres undefined)
inactive: [10] 98 % of control | [11] 98 % of control

CN1CCC(C(c2ccccc2)c2ccccc2)C1 (centres undefined)
inactive: dose: 12.5 mg/kg/injection, schedule: Q01DX009 (ip), vehicle: Klucel (hydroxypropylcellulose) (HPC) 100 % of control | dose: 25.0 mg/kg/injection, schedule: Q01DX009 (ip), vehicle: Klucel (hydroxypropylcellulose) (HPC) 102 % of control | [1] 105 % of control

CCCCn1c(C)nc2cc(C(F)(F)F)cc(N)c21
inactive: [10] 99 % of control | [11] 101 % of control | [12] 108 % of control

O=NNc1ncc(Sc2ccccc2)nc1Sc1ccccc1
inactive: dose: 6.25 mg/kg/injection, schedule: Q01DX009 (ip), vehicle: water 103 % of control | dose: 12.5 mg/kg/injection, schedule: Q01DX009 (ip), vehicle: water 113 % of control | dose: 25.0 mg/kg/injection, schedule: Q01DX009 (ip), vehicle: water 122 % of control | dose: 100.0 mg/kg/injection, schedule: Q01DX009 (ip), vehicle: water 106 % of control

Cc1ccc(S(=O)(=O)N(CCCc2ccccc2)S(=O)(=O)c2ccc(C)cc2)cc1
inactive: [1] 96 % of control | [2] 97 % of control | [3] 100 % of control

O=c1[nH]cc(NS(=O)(=O)c2ccccc2)c(=O)[nH]1
inactive: [4] 105 % of control | [5] 101 % of control

Cc1cc(C)c(C#N)c(=O)[nH]1
inactive: dose: 12.5 mg/kg/injection, schedule: Q04DX003 (ip), vehicle: saline with Tween-80 97 % of control | dose: 25.0 mg/kg/injection, schedule: Q04DX003 (ip), vehicle: saline with Tween-80 103 % of control | [13] 105 % of control | [14] 103 % of control

Oc1ccc(SCc2ccc(NCc3ccccc3)cc2)cc1
inactive: [10] 113 % of control and 117 % of control | [11] 119 % of control

NC(N)=N/N=C/C=N/N=C(N)N
inactive: dose: 6.25 mg/kg/injection, schedule: Q01DX009 (ip), vehicle: saline 118 % of control | dose: 6.25 mg/kg/injection, schedule: Q04DX003 (ip), vehicle: saline 100 % of control | dose: 12.5 mg/kg/injection, schedule: Q01DX009 (ip), vehicle: saline 100 % of control | dose: 25.0 mg/kg/injection, schedule: Q01DX009 (ip), vehicle: saline 95 % of control and 100 % of control | dose: 25.0 mg/kg/injection, schedule: Q04DX003 (ip), vehicle: saline 90 % of control and 100 % of control | dose: 50.0 mg/kg/injection, schedule: Q01DX009 (ip), vehicle: saline 86 % of control and 100 % of control | dose: 50.0 mg/kg/injection, schedule: Q04DX003 (ip), vehicle: saline 100 % of control | dose: 100.0 mg/kg/injection, schedule: Q01DX009 (ip), vehicle: saline 86 % of control | dose: 100.0 mg/kg/injection, schedule: Q04DX003 (ip), vehicle: saline 95 % of control and 100 % of control

ClC1CC(C(Cl)(Cl)Cl)CCC1C(Cl)(Cl)Cl (centres undefined)
inactive: [7] 98 % of control | [8] 96 % of control | [9] 96 % of control

O=C1NC(=S)S/C1=C\c1ccncc1
inactive: [1] 100 % of control and 110 % of control and 116 % of control | [2] 106 % of control (2×) and 114 % of control | [3] 98 % of control and 121 % of control and 91 % of control | dose: 400.0 mg/kg/injection, schedule: Q01DX009 (ip), vehicle: Klucel (hydroxypropylcellulose) (HPC) 106 % of control

C=C1CC(c2ccc(S(=O)(=O)N3CCOCC3)cc2)OC1=O (centres undefined)
inactive: dose: 25.0 mg/kg/injection, schedule: Q01DX005 (ip), vehicle: Klucel (hydroxypropylcellulose) (HPC) 104 % of control | dose: 50.0 mg/kg/injection, schedule: Q01DX005 (ip), vehicle: Klucel (hydroxypropylcellulose) (HPC) 120 % of control | dose: 100.0 mg/kg/injection, schedule: Q01DX005 (ip), vehicle: Klucel (hydroxypropylcellulose) (HPC) 113 % of control

O=c1[nH]c(=O)n(C2CC(O)C(CO)O2)cc1O (centres undefined)
inactive: [13] 100 % of control | [14] 101 % of control | [15] 99 % of control | dose: 400.0 mg/kg/injection, schedule: Q04DX003 (ip), vehicle: saline with Tween-80 101 % of control

Cc1ccc(NC(=O)c2cc3ccccc3c(N=Nc3ccccc3O)c2O)c(C)c1
inactive: [4] 94 % of control | [5] 109 % of control | [6] 97 % of control

CC1(OC(=O)c2ccc(Cl)cc2)CC(C)(C)[N+]([O-])=N1 (centres undefined)
inactive: dose: 12.5 mg/kg/injection, schedule: Q01DX009 (ip), vehicle: other 103 % of control | dose: 25.0 mg/kg/injection, schedule: Q01DX009 (ip), vehicle: other 99 % of control | dose: 50.0 mg/kg/injection, schedule: Q01DX009 (ip), vehicle: other 99 % of control | dose: 100.0 mg/kg/injection, schedule: Q01DX009 (ip), vehicle: other 96 % of control | dose: 200.0 mg/kg/injection, schedule: Q01DX009 (ip), vehicle: other 99 % of control

Nc1ccn(CC(=O)c2ccc(Cl)s2)c(=O)n1
inactive: dose: 100.0 mg/kg/injection, schedule: Q04DX003 (ip), vehicle: water 100 % of control | dose: 200.0 mg/kg/injection, schedule: Q04DX003 (ip), vehicle: water 100 % of control | dose: 400.0 mg/kg/injection, schedule: Q04DX003 (ip), vehicle: water 104 % of control

O=C(/C=C/c1c2ccccc2cc2ccccc12)c1ccc(C(=O)/C=C/c2c3ccccc3cc3ccccc23)cc1
inactive: dose: 12.5 mg/kg/injection, schedule: Q01DX009 (ip), vehicle: saline with Tween-80 105 % of control | dose: 25.0 mg/kg/injection, schedule: Q01DX009 (ip), vehicle: saline with Tween-80 90 % of control

CCOC(=O)C(CC(=O)O)=C1c2ccccc2-c2ccccc21
inactive: [4] 104 % of control | [5] 113 % of control | [6] 107 % of control

COC(=O)C1=CN(CCc2ccc(O)cc2)C(=O)C2C1CC(O)C2C (centres undefined)
inactive: dose: 7.5 mg/kg/injection, schedule: Q01DX005 (ip), vehicle: saline with Tween-80 99 % of control | dose: 15.0 mg/kg/injection, schedule: Q01DX005 (ip), vehicle: saline with Tween-80 93 % of control | dose: 30.0 mg/kg/injection, schedule: Q01DX005 (ip), vehicle: saline with Tween-80 94 % of control

O=C(C[n+]1ccccc1)NC(O)C(Cl)(Cl)Cl (centres undefined)
inactive: dose: 50.0 mg/kg/injection, schedule: Q01DX005 (ip), vehicle: saline 106 % of control | dose: 100.0 mg/kg/injection, schedule: Q01DX005 (ip), vehicle: saline 105 % of control | dose: 200.0 mg/kg/injection, schedule: Q01DX005 (ip), vehicle: saline 109 % of control

CC(C)c1cc(C=C2C(=O)c3ccccc3C2=O)cc(C(C)C)c1O
inactive: dose: 100.0 mg/kg/injection, schedule: Q04DX002 (ip), vehicle: saline 100 % of control | dose: 200.0 mg/kg/injection, schedule: Q04DX002 (ip), vehicle: saline 100 % of control | dose: 400.0 mg/kg/injection, schedule: Q04DX002 (ip), vehicle: saline 97 % of control

CC(=O)Nc1ncn[nH]1
inactive: [10] 100 % of control | [11] 90 % of control | [14] 100 % of control | [12] 90 % of control | [15] 90 % of control
